Source: US8828966B2, “Method for treatment of macular degeneration by modulating P2Y12 or P2X7 receptors” (priority 2006, dated 2014)

How the values were obtained:
ARPE-19 cells [1] = experiment: Clearance (degradation) of calcein-labeled photoreceptor outer segments; assay type: cell-based, human; details: 100 nM CGS with 20 μM CHQ, 24 hrs
Procedure: Outer Segment Degradation: Bovine retinas were homogenized in 20% sucrose with 130 mM NaCl, 20 mM Tris-HCl, 10 mM glucose, 5 mM taurine and 2 mM MgC12 (pH 7.20). The homogenate was placed in ultracentrifuge tubes with 20%, 27%, 33%, 41%, 50% and 60% sucrose, respectively, and centrifuged for 70 minutes at 28,000 rpm on a SW28 rotor (4° C.). The supernatant was filtered, diluted in 0.02M Tris-HCl buffer (pH 7.2) and centrifuged at 13,000×g for 10 minutes (4° C.). The pellet was resuspended in […], 0.1 mM NaCl and 2.5% sucrose. Outer segments were loaded with 5 μM calcein-AM in PBS for 10 minutes, and spun 2× at 14,000 rpm to wash. Outer segments were then diluted 1:100 in growth medium and added to ARPE-19 cells in 96-well plates.
Isolated bovine outer segments loaded with calcein were supplied to ARPE-19 cells in 96-well plates for 2 hrs, washed 3× and maintained in control medium for an additional 3 hr (see Methods). […] Promising compounds were examined for their effects on cells treated with A2E, although the restoration of pHL is unlikely to remove A2E itself. However, other components of the outer segments are amendable to digestion by lysosomal enzymes at the appropriate pHL, and acidification could minimize the secondary effect of this accumulation.

ARPE-19 cells [2] = experiment: Lysosomal pH (pHL) with LysoSensor Yellow/Blue, high through-put screen; assay type: cell-based, human; details: for effect on pHL of cells treated with chloroquine: chloroquine (20 μM with CGS21680 100 nM); for effect on pHL of cells treated with tamoxifen: tamoxifen concentration not stated, A68930 and A77636 at 1 μM; for effect on pHL of cells treated with 30 μM tamoxifen: CFTRAct16 at 10 μM; for effect on pHL, agent alone: cells without other alkalinizing agent, NH4Cl 10 mM, BAF 200 nM, CHQ 20 μM, CFTR-172 10 μM, LDL 10 μg/ml, others not given
Procedure: Lysosensor Yellow/Blue co-localized with the Lysotracker Red dye in small vesicles, with a distribution consistent with lysosomal origin. Measurements of pHL were performed using a high throughput screening (HTS) protocol to maximize output and minimize variation using ARPE-19 cells in 96 well plates. […] Loading for 5 min. at 23° C. with 5 μM lysosensor, followed by 15 min. for internalization, produced stable and reproducible results.
The ratio was converted to pH by calibrating with KCl buffered to pH 4.0-6.0 in the presence of monensin and nigericin. Calibration indicated a baseline pH of 4.4 to 4.5, supporting lysosomal localization. […] NH4Cl decreased the ratios slightly at 380 nm. Nevertheless, absent the addition of the dye, none of these compounds, or any others, altered the fluorescent signal at 340 or 380 nm, showing a specificity of the measured change to pHL. […] This quantification is necessary to predict the potential effectiveness of acidifying drugs to restore lysosomal enzyme activity.
Extensive trials determined that the optimal response is obtained with 5 minute dye loading and 15 minute post-incubation. […] All reagents were from Sigma Chemical Corp. unless otherwise indicated.
In general, each condition below used 3-12 independent wells per plate, in 3-6 separate plates. As levels from individual plates varied, data was normalized to the mean pHL for control wells from each plate. Fluorescent ratios were converted to pH following calibration performed on each plate as described. Incubation with Lysosensor Yellow/Blue was kept constant and all measurements were performed 15 min after removal of dye from the bath to ensure continuity. Significance was determined with a one-way ANOVA and Tukey post test. Drugs were always tested on control cells to ensure modification of healthy RPE cells was minimal, and cells were not exposed to dye to make sure effects were specific. All background was subtracted from the fluorescence excited at 340 and 380 nm independently before calculation of the ratio.

ARPE-19 cells [3] = experiment: FACS analysis of autofluorescence (excited at 488 nm); assay type: cell-based, human; details: for effect on autofluorescence enhanced by POS+CHQ: photoreceptor outer segments plus 10 μM chloroquine, 7 days
From the text: To maintain a balance between the synthesis, degradation, and subsequent recycling of cellular products there are a variety of autophagic responses, but all involve degradation of intracellular components via the lysosome. Typically, autophagy involves the formation of a membrane around a targeted region of the cell, separating the contents from the rest of the cytoplasm, and then the resultant vesicle fuses with a lysosome and the contents are subsequently degraded.

[4] = test system: primary cultures of bovine RPE cells; experiment: Lysosomal pH in primary bovine RPE cultures; assay type: cell-based; details: tamoxifen
Procedure: Isolation of Bovine and Mouse RPE Cells: The bovine RPE-choroid and sclera were removed, incubated in 2.5% trypsin at 37° C. in 5% CO2 for 30 min, after which RPE sheets are dissected, washed and plated in 96-well plates with 10% serum medium. Mouse eyes were incubated in DMEM for 3 hrs at room temperature (RT), then in 0.1% trypsin and 0.4 mg/ml collagenase IV with 1 mM EDTA for 45 min at RT. RPE sheets were dissected out, washed, and incubated with 0.25% trypsin/0.02% EDTA in order to obtain a suspension of single cells, then grown as above.
HTS Measurement of pHL: ARPE-19 cells were grown in 96-well plates, rinsed 3× with isotonic solution (IS; prepared from NaCl 105 mM, KCl 5 mM, HEPES Acid 6 mM, Na HEPES 4 mM, NaHCO3 5 mM, mannitol 60 mM, glucose 5 mM, MgCl2 0.5 mM, CaCl2 1.3 mM) and incubated with 5 μM LysoSensor Yellow/Blue (Invitrogen Corp.) diluted with IS. Extensive trials determined that the optimal response is obtained with 5 minute dye loading and 15 minute post-incubation. Fluorescence was measured with a Fluoroskan 96-well Plate Reader (Thermo Electron Corp.). pHL was determined from the ratio of light excited at 340 nm vs 380 nm ([…] em). pHL was calibrated by exposing cells to 10 μM H^+/Na^+ ionophore monensin and 20 μM H^+/K^+ ionophore nigericin in 20 MES, 110 KCl and 20 NaCl at pH 3.0-7.0 for 15 min. All reagents were from Sigma Chemical Corp. unless otherwise indicated.

With CCNC(=O)[C@H]1O[C@@H](n2cnc3c(N)nc(NCCc4ccc(CCC(=O)O)cc4)nc32)[C@H](O)[C@@H]1O [CGS21680] the “degradative capacity (outer segment clearance) in chloroquine-treated cells” value (ARPE-19 cells [1]) was “restored the degradative capacity”, the “effect on pHL of cells treated with 10 μM tamoxifen” value (shortened to “effect … with 10 μM tamoxifen”) (ARPE-19 cells [2]) was “Over half of the increase triggered by 10 μM tamoxifen was reversed” and the “effect on pHL of cells treated with chloroquine” value (ARPE-19 cells [2]) was “decreased the lysosomal alkalinization”. The “effect on pHL of cells treated with tamoxifen” value (ARPE-19 cells [2]) was “acidified the lysosomes”.
CCCSc1nc(N)c2ncn([C@@H]3O[C@H](COP(=O)([O-])OP(=O)([O-])C(F)(F)P(=O)([O-])[O-])[C@@H](O)[C@H]3O)c2n1.[Na+].[Na+].[Na+].[Na+] [AR-C66096, 2-(Propylthio) adenosine-5′-O-(β,γ-difluoromethylene) triphosphate tetrasodium salt] was tested, and the “effect on autofluorescence enhanced by POS+CHQ” value (ARPE-19 cells [3]) was “reduced this enhanced auto-fluorescence to near control levels” and the “effect on pHL elevation by P2Y12 agonist MeSADP” value (ARPE-19 cells [2]; cells stimulated with MeSADP) was “inhibited these actions and restored lysosomal acidity”.
In the case of CN[C@@H]1C[C@H]2O[C@@](C)([C@@H]1OC)n1c3ccccc3c3c4c(c5c6ccccc6n2c5c31)C(=O)NC4 [staurosporine], the “effect on pHL of cells treated with tamoxifen” value (ARPE-19 cells [2]) is reported as “decrease in lysosomal pH”.
CNC[C@H](O)c1ccc(O)c(O)c1 [epinephrine] was tested, and the “effect on pHL of cells treated with tamoxifen” value (ARPE-19 cells [2]) was “significantly decrease pHL”.
For CC(C)OC(=O)CCC/C=C\C[C@@H]1[C@@H](CC[C@@H](O)CCc2ccccc2)[C@H](O)C[C@@H]1O [latanaprost], the “effect on pHL of cells treated with 30 μM tamoxifen” value (shortened to “effect … with 30 μM tamoxifen”) (ARPE-19 cells [2]) was “did not lower pHL”.
CCOc1ccc(Nc2ccc(/C(=C3C=C/C(=[N+](/CC)Cc4cccc(S(=O)(=O)[O-])c4)C=C/3C)c3ccc(N(CC)Cc4cccc(S(=O)(=O)[O-])c4)cc3C)cc2)cc1.[Na+] [BBG] was tested, and the “effect on autofluorescence enhanced by POS+CHQ” value (ARPE-19 cells [3]) was “reduced this enhanced autofluorescence” and the “effect on pHL rise by P2X7 agonist BzATP” value (ARPE-19 cells [2]; cells stimulated with BzATP) was “prevented this rise”.
With OC[C@H]1O[C@@H](n2cnc3c(NC4CCCC4)ncnc32)[C@H](O)[C@@H]1O [CPA, N^6-cyclopentyl-adenosine] the “effect on pHL of cells treated with tamoxifen” value (ARPE-19 cells [2]) was “had no effect”.
For CO/C1=C\C(C)=C\[C@@H](C)[C@@H](O)[C@@H](C)C/C(C)=C/C=C/[C@H](OC)[C@@H]([C@@H](C)[C@@H](O)[C@H](C)[C@@]2(O)C[C@@H](O)[C@H](C)[C@@H](C(C)C)O2)OC1=O [bafilomycin-A], the “effect on pHL, agent alone” value (ARPE-19 cells [2]) was “pH was elevated”.
For COc1ccc(Cl)cc1C(=O)NCCc1ccc(S(=O)(=O)NC(=O)NC2CCCCC2)cc1 [glybenclamide], the “effect on pHL, agent alone” value (ARPE-19 cells [2]) was “smaller effects” and the “effect on pHL of cells treated with tamoxifen” value (ARPE-19 cells [2]) was “increased pHL”.
CCN(CC)CCCC(C)Nc1ccnc2cc(Cl)ccc12 (centres unmarked) [chloroquine] was tested, and the “autofluorescence, agent alone” value (ARPE-19 cells [3]; 10 μM for 7 days) was “increased autofluorescence” and the “effect on pHL, agent alone” value (ARPE-19 cells [2]) was “pH was elevated”.
In the case of CC(C)(C)NC[C@H](O)COc1nsnc1N1CCOCC1 [timolol], the “effect … with 30 μM tamoxifen” value (ARPE-19 cells [2]) is reported as “did not lower pHL” and the “effect on the reduction of pHL triggered by norepinephrine” value (ARPE-19 cells [2]; cells treated with tamoxifen plus norepinephrine) is reported as “blocked”.
With Nc1ncnc2c1nc(Br)n2[C@@H]1O[C@@H]2COP(=O)(O)O[C@H]2[C@H]1O [8-Br-cAMP, 8-bromo-adenosine 3′,5′-cyclic monophosphate] the “effect … with 10 μM tamoxifen” value (ARPE-19 cells [2]) was “not significant”.
CSc1nc(N)c2ncn([C@@H]3O[C@H](COP(=O)(O)OP(=O)(O)O)[C@@H](O)[C@H]3O)c2n1 [MeSADP] was tested, and the “effect on pHL, agent alone” value (ARPE-19 cells [2]) was “elevated the lysosomal pHL”.
CC(C)NCC(O)c1ccc(O)c(O)c1 (centres unmarked) [isoproterenol] was tested, and the “effect on pHL of cells treated with tamoxifen” value (ARPE-19 cells [2]) was “significantly decrease pHL”.
For OC[C@H]1O[C@@H](n2cnc3c(NC4CC5CCC4C5)ncnc32)[C@H](O)[C@@H]1O (stereo partly drawn) [ENBA, (2S)-N^6-[2-endo-norbornyl]adenosine], the “effect on pHL of cells treated with tamoxifen” value (ARPE-19 cells [2]) was “had no effect”.
In the case of O=C(O)c1cc([N+](=O)[O-])ccc1NCCCc1ccccc1 [NPPB, 5-nitro-2-(3-phenylpropylamino)-benzoate], the “effect on pHL of cells treated with tamoxifen” value (ARPE-19 cells [2]) is reported as “reversed”.
CCNC(=O)[C@H]1O[C@@H](n2cnc3c(N)ncnc32)[C@H](O)[C@@H]1O [NECA, 5′-(N-ethylcarboxamido) adenosine] was tested, and the “effect on pHL of cells treated with tamoxifen” value (ARPE-19 cells [2]) was “reversed lysosomal alkalinization by tamoxifen” and the “effect on pHL of bovine cells treated with tamoxifen” value [4] was “not quite significant”.
C[C@]12CC[C@@H]3c4ccc(O)cc4CC[C@H]3[C@@H]1CC[C@@H]2O [17-β estradiol] was tested, and the “effect on pHL of cells treated with tamoxifen” value (ARPE-19 cells [2]) was “neither mimicked, nor inhibited”.
Nc1ncnc2c1nc(Sc1ccc(Cl)cc1)n2[C@@H]1O[C@@H]2COP(=O)([O-])O[C@H]2[C@H]1O.[Na+] [cpt-cAMP, 8-(4-chlorophenylthio) adenosine-3′,5′-cyclic monophosphate] was tested, and the “effect … with 10 μM tamoxifen” value (ARPE-19 cells [2]) was “significantly decreased pHL” and the “effect … with 30 μM tamoxifen” value (ARPE-19 cells [2]) was “significantly decreased pHL”.
In the case of O=c1c(-c2ccc(O)cc2)coc2cc(O)cc(O)c12 [genistein], the “effect on pHL, agent alone” value (ARPE-19 cells [2]) is reported as “smaller effects” and the “effect on pHL of cells treated with tamoxifen” value (ARPE-19 cells [2]) is reported as “acidified lysosomes”.
With CCN[C@H]1C[C@H](C)S(=O)(=O)c2sc(S(N)(=O)=O)cc21 [dorzolamide] the “effect … with 30 μM tamoxifen” value (ARPE-19 cells [2]) was “did not lower pHL”.
With CNC[C@H](O)c1cccc(O)c1 [phenylephrine] the “effect on pHL of cells treated with tamoxifen” value (ARPE-19 cells [2]) was “no significant effect on pHL”.
O=C(O)c1ccc(/C=C2\SC(=S)N(c3cccc(C(F)(F)F)c3)C2=O)cc1 [CFTR-172] was tested, and the “effect on pHL, agent alone” value (ARPE-19 cells [2]) was “increased lysosomal pH”.
For Nc1ncnc2c1ncn2[C@@H]1O[C@H](CO)[C@@H](O)[C@H]1O [adenosine], the “effect on pHL of cells treated with tamoxifen” value (ARPE-19 cells [2]) was “reduce the pHL” and the “effect on pHL of bovine cells treated with tamoxifen” value [4] was “acidified the lysosomes”.
NC[C@H](O)c1ccc(O)c(O)c1 [norepinephrine] was tested, and the “effect on pHL of cells treated with chloroquine” value (ARPE-19 cells [2]) was “reduced pHL” and the “effect on pHL of cells treated with tamoxifen” value (ARPE-19 cells [2]) was “significantly decrease pHL”.
